Laboratory results published in patent US20130102631A1, “NOVEL MICROBIOCIDAL DIOXIME ETHER DERIVATIVES” (SYNGENTA CROP PROTECTION LLC, priority 2010, published 2013).

Legend:
[1] = tested on: Mycosphaerella arachidis (Cercospora arachidicola); assay: Mycosphaerella arachidis (Cercospora arachidicola) / liquid culture (early leaf spot); format: cell-based; conditions: at ≦200 ppm, liquid culture PDB, inhibition of growth photometrically 4-5 days after application, read-out: control of Mycosphaerella arachidis
In short: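 Cryostored Cercospora arachidicola conidia were mixed into potato dextrose broth and added to test compound in DMSO. Incubation was at 24° C. Growth inhibition was read photometrically 4-5 days after application.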

[2] = tested on: Phaeosphaeria nodorum (Septoria nodorum); assay: Phaeosphaeria nodorum (Septoria nodorum) / wheat / leaf disc preventative (glume blotch); format: in vivo; conditions: Parastagonospora nodorum, foliar, wheat leaf segments cv Kanzler, inoculated 2 days after application, assessed 5-7 days after application
In short: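 Wheat cv Kanzler leaf segments on agar were sprayed with formulated compound at 200 ppm and inoculated with spores 2 days later. Incubation at 20 °C, 75% RH, 12/12 h light/dark; percent disease control versus untreated scored 5–7 days after application.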

[3] = tested on: Blumeria graminis f. sp. tritici (Erysiphe graminis f. sp. tritici); assay: Blumeria graminis f. sp. tritici / wheat / leaf disc preventative (powdery mildew on wheat); format: in vivo; conditions: foliar, wheat leaf segments cv. Kanzler, inoculated 1 day after application, assessed 6-8 days after application
Method: Blumeria graminis f. sp. tritici (Erysiphe graminis f. sp. tritici)/Wheat/Leaf Disc Preventative (Powdery Mildew on Wheat):
Wheat leaf segments cv. Kanzler were placed on agar in a 24-well plate and sprayed with the formulated test compound diluted in water at an application rate of 200 ppm. The leaf disks were inoculated by shaking powdery mildew infected plants above the test plates 1 day after application. The inoculated leaf disks were incubated at 20° C. and 60% relative humidity under a light regime of 24 h darkness followed by 12 h/12 h (dark/light) in a climate chamber and the activity of a compound was assessed as percent disease control compared to untreated when an appropriate level of disease damage appears on untreated check leaf segments (6-8 days after application). The following compounds gave at least 80% control of Blumeria graminis: E/E-2.168, E/E-2.474, E/E-2.002; 5.561; 2.561; E/E-2.208; 2.513; 2.559; 2.557; 2.556; 2.555; 2.374; 2.552; 2.537; 2.533; 2.530; 2.528; 2.526; 2.519; 2.510; 2.516; 2.514; E/E-5.167; E/E-3.002; 2.512; 2.511

[4] = tested on: Thanatephorus cucumeris (Rhizoctonia solani); assay: Thanatephorus cucumeris (Rhizoctonia solani) / liquid culture (foot rot, damping-off); format: cell-based; conditions: at ≦200 ppm, liquid culture PDB, inhibition of growth photometrically 3-4 days after application, read-out: control of Thanatephorus cucumeris
Method: Thanatephorus cucumeris (Rhizoctonia solani)/Liquid Culture (Foot Rot, Damping-Off Mycelia fragments of a newly grown liquid culture of the fungus are directly mixed into nutrient broth (PDB potato dextrose broth). After placing a DMSO solution of the test compounds into a 96-well microtiter, the nutrient broth containing the fungal material was added. The test plates were incubated at 24° C. and the inhibition of growth was determined photometrically 3-4 days after application. […]-2.508 5.561; 2.561; P.57; 2.513; 2.559; 2.558; 2.553; 2.533; 2.530; 2.526; 2.519; 2.517; 2.516; 2.514; 2.512; 2.514

[5] = tested on: Mycosphaerella graminicola (Septoria tritici); assay: Mycosphaerella graminicola (Septoria tritici) / liquid culture (Septoria blotch); format: cell-based; conditions: Zymoseptoria tritici; at ≦200 ppm, liquid culture PDB, inhibition of growth photometrically 4-5 days after application; read-out: control of Mycosphaerella graminicola
Glomerella lagenarium = Glomerella lagenarium (Colletotrichum lagenarium) / liquid culture (anthracnose); format: cell-based; conditions: Colletotrichum orbiculare; at ≦200 ppm, liquid culture PDB, inhibition of growth photometrically 3-4 days after application; read-out: control of Glomerella lagenarium
In short: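 Glomerella lagenarium conidia in potato dextrose broth added to test compound supplied in DMSO in microtiter wells. Plates incubated at 24° C.; growth inhibition measured photometrically 3-4 days after application.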

[6] = tested on: Monographella nivalis (Microdochium nivale); assay: Monographella nivalis (Microdochium nivale) / liquid culture (foot rot cereals); format: cell-based; conditions: at ≦200 ppm, liquid culture PDB, inhibition of growth photometrically 4-5 days after application, read-out: control of Monographella nivalis
In short: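 Microdochium nivale conidia in potato dextrose broth added to compound delivered in DMSO, then incubated at 24 °C. Growth inhibition measured photometrically 4-5 days after application.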

Gaeumannomyces graminis = Gaeumannomyces graminis / liquid culture (take-all of cereals); format: cell-based; conditions: at ≦200 ppm, liquid culture PDB, inhibition of growth photometrically 4-5 days after application, read-out: control of Gaeumannomyces graminis
In short: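 Mycelial fragments of the fungus in potato dextrose broth were added to wells containing compound in DMSO. Plates were incubated at 24° C, and growth inhibition was read photometrically 4-5 days after application.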

CCOC(=O)c1ccc(C)c(/C(C)=N/OCC(C)(C)CO/N=C2\CCCc3ccc(C)nc32)n1 [Compound 2.526]
≥ 80%: inhibition of growth at up to 200 µg/mL [1] | pest or weed control at 200 ppm [2] | pest or weed control at 200 ppm [3] | inhibition of growth at up to 200 µg/mL [4] | inhibition of growth at up to 200 µg/mL [5] | inhibition of growth at up to 200 µg/mL (Glomerella lagenarium) | inhibition of growth at up to 200 µg/mL [6] | inhibition of growth at up to 200 µg/mL (Gaeumannomyces graminis)
